The structures appear in SMILES notation.

The subject of assay [1] is activated PBMCs. Briefly: Cell number / proliferation of activated PBMCs (trypan blue). It counts as cell-based, human. Particulars: 0.5 μM APH. How it is done:
(§1) Cell proliferation was measured by the trypan blue staining viability test, [^3H]thymidine incorporation in DNA, and the 3-(4,5-dimethylthiazol-2-yl)-2,5-diphenyl tetrazolium bromide (MTT) assay (Roche).
To this end, β-chemokine levels (production or availability) by activated PBMCs cultured in the presence of HU was investigated. HU is a G1 cytostatic drug that, by depleting intracellular nucleotide pools, arrests cell cycle progression in late G1 (Lori, et al., 1994). […] In the representative experiment depicted in FIG. 2, day 8 chemokine levels in cultures containing 100 μM HU were increased 3.4-fold for RANTES, 5.4-fold for MIP-1α, and 4-fold for MIP-1β compared with the untreated control. Because HU inhibits lymphocyte proliferation, chemokine values also were expressed as chemokine amount per viable cell. As expected, cell numbers were lower in the presence of the drug (FIG. 2C).
The agents evaluated were SB, APH, RC, and OL. SB and APH arrest the cell cycle in early and late G1, respectively (Korin, et al., 1998; Koostra, et al., 2000). RC and OL are purine-derivative drugs that arrest cell cycle progression in late G1 through inhibition of cyclin-dependent kinases (CDKs) (Gray, et al., 1999). […] The number of viable cells and chemokine levels are depicted. […]

Assay [2] relates to activated PBMCs. Kind of assay: β-chemokine levels (ELISA) in supernatants of activated PBMCs cultured with cell cycle arresting compounds. It is filed as cell-based, human. Particulars: PHA-activated PBMCs; for chemokine levels: at G1 cytostatic concentrations of the drug.
The subject of assay [3] is CD8 lymphocytes. Briefly: β-chemokine levels (ELISA) in cultures of purified activated CD8 lymphocytes. It is filed as cell-based, human. In general terms: In an ELISA, binding on a coated surface is turned into a signal by an enzyme label.
The next assay relates to HIV-1 ADA. Kind of assay: Antiviral activity of TAK-779 with or without RAPA in PBMCs (p24). It counts as cell-based. How it is done:
For infection of PBMCs, fresh donor PBMCs were cultured for 7 days in medium containing IL-2. On day 7, cells were exposed to the virus for 3 h. Nonadsorbed virus was removed by washing cells with PBS three times. Infected cells were cultured in IL-2 medium. Infection of MDMs was carried out as described before (Pemo, et al. 1993). Unless otherwise indicated, PBMCs were infected by using a moi of 0.001, and monocyte-derived macrophages (MDMs) were infected by using a moi of 0.002. Virus growth was monitored in culture supernatants by measuring p24 antigen levels by ELISA (NEN) or by measuring viral RT activity in an RT assay (Willey, et al., 1988).
To test this hypothesis, donor PBMCs were cultured in IL-2 medium in the absence or presence of RAPA (1, 10, and 100 nM). […] Infected cells were cultured in the presence of RAPA (same concentration as during pretreatment) plus 0.1 nM TAK-779. Virus production was determined 7 days after infection (FIG. 11).

In assay [4] the test system is CD8 lymphocytes. It is filed as cell-based, human. To be noted: 0.01 μg/ml nocodazole, 48 h. The method, then:
as §1
The impact of cell cycle arrest in β-chemokine levels was evaluated by measuring chemokine levels in supernatants of cell cultures containing compounds known to cause cell cycle arrest. Levels of the β-chemokines RANTES, MIP-1α, and MIP-1β were measured by using commercial ELISA kits (R &D Systems). Cell cycle arrest in G1 was induced by culturing of the cells in the presence of aphidicolin (APH), sodium butyrate (SB), hydroxyurea (HU), roscovitine (RC), or olomoucine (OL). Arrest in late S phase was induced by culture of cells in the presence of resveratrol. G2 cycle arrest was induced by the compounds nocodazole and Colcemid. All compounds were purchased from Sigma except RC and OL, which were from Calbiochem. Arrest of cell cycle progression in the presence of G1 cytostatic agents was measured by propidium iodide staining followed by fluorescence-activated cell sorter (FACS) analysis (Noguchi, et al., 1991). This method may be used to test any compound for ability to arrest the G1 phase in a cell cycle.
In the experiments described thus far, total PBMCs had been used. […] Negatively selected CD8^+ lymphocytes were activated by anti-CD3 plus IL-2 treatment for 3 days. Activated cells were cultured in the presence of IL-2 and HU (100 and 200 μM) for 24 or 48 h, time points at which cell proliferation and supernatant chemokine levels were assayed. Cell proliferation was determined by trypan blue staining, [^3H]thymidine incorporation in DNA, and percentage of cells in S phase as assessed by propidium iodide staining (FIG. 4). […] Similarly, the percentage of cells in S phase increased in the absence of HU, whereas it decreased in its presence. […]
To investigate whether increased levels of supernatant chemokines upon cell cycle arrest are cell cycle phase-specific, the effect of G2 arrest in chemokine production next was evaluated. […]

In the case of `C[C@@]1(CO)[C@H](O)CC[C@@]2(C)[C@H]1CC[C@H]1C[C@@H]3C[C@@]12CC[C@]3(O)CO` [APH, aphidicolin], in the assay with activated PBMCs [1], the cell proliferation result is given as “reduced cell proliferation”. Further, the chemokine values result in the assay on activated PBMCs [2] (0.5 μM APH) is recorded as “Increased chemokine values”.
Regarding `CN[C@H]1CCc2cc(OC)c(OC)c(OC)c2-c2ccc(OC)c(=O)cc21` [Colcemid], the “chemokine content on G2 cycle arrest” value with CD8 lymphocytes [3] (same as nocodazole (lower than untreated), data not shown) is recorded as “same results”.
As for `CC[C@H](CO)Nc1nc(NCc2ccccc2)c2ncn(C(C)C)c2n1` [RC, roscovitine], in the assay on activated PBMCs [2], the chemokine levels result is “increased chemokine levels”.
Take `CCCC(=O)[O-].[Na+]` [SB, sodium butyrate]: the chemokine levels entry in the assay on activated PBMCs [2] is recorded as “increased chemokine levels”.
`Cc1ccc(-c2ccc3c(c2)C=C(C(=O)Nc2ccc(C[N+](C)(C)C4CCOCC4)cc2)CCC3)cc1.[Cl-]` [TAK-779]: the “inhibition of virus replication” value with HIV-1 ADA (0.1 nM TAK-779, absence of RAPA, day 7) was 21%. Moreover, the “virus inhibition due to TAK-779” value with HIV-1 ADA (0.1 nM TAK-779 in presence of 1 nM RAPA) is 74.5%; in the assay with HIV-1 ADA (0.1 nM TAK-779 in presence of 10 nM RAPA) it was 89%; in the assay on HIV-1 ADA (0.1 nM TAK-779 in presence of 100 nM RAPA) it was 96%.
In the case of `COC(=O)Nc1nc2ccc(C(=O)c3cccs3)cc2[nH]1` [nocodazole], the cell cycle distribution result in the assay with CD8 lymphocytes [4] is “accumulation of cells in G2”. Moreover, the chemokine content result in the assay on CD8 lymphocytes [3] (0.01 μg/ml nocodazole, 48 h, G2 arrest) is recorded as “lower than in the untreated controls”.
On to `Oc1ccc(C=Cc2cc(O)cc(O)c2)cc1` [resveratrol], for which the “chemokine levels on cell cycle arrest in late S” value with CD8 lymphocytes [3] (10 μM resveratrol, data not shown) is “lower than the untreated control”.

Source of the values: patent US20060099170A1, “Compositions for inducing increased levels of beta-chemokines and methods of use therefor” (priority 2002, published 2006).
